The values below come from patent US20240391958A1, “KEANUMYCINS AND USES THEREOF IN MEDICINE AND PLANT PROTECTION” (Leibniz-Institut für Naturstoff-Forschung und …, priority 2023, published 2024).

The structures appear in SMILES notation. Values after ≈ are worked out from the molar mass of the structure shown. Values joined by “and” are separate entries in the source; they are usually repeats but may differ in a detail not shown here. Equal entries are not always repeated. Where two headings read alike, the source gives them in different places. Where a SMILES comes first, the peptide text is derived from it. Bridges are numbered along the chain shown (N, C = ends). [ ]: non-standard residue; d: D form. The star is where a group is joined. X1 = CCCCCCCCCCCC[C@@H](O)[C@@H](O)CC(=O)*; Asp(3S-OH) = N[C@H](C(=O)O)[C@H](O)C(=O)O; Thr(4-Cl) = N[C@H](C(=O)O)[C@H](O)CCl; aThr = C[C@H](O)[C@H](N)C(=O)O; d(hSer) = N[C@H](CCO)C(=O)O; dDab = NCC[C@@H](N)C(=O)O; Dab = NCC[C@H](N)C(=O)O; Dhb = C/C=C(\N)C(=O)O

Data set [1] deals with D. discoideum cells (AX2). Put plainly: Amoebicidal activity against D. discoideum (cell count, CASY). The format is cell-based. To be noted: Dictyostelium discoideum; 72 h, 22 °C, average of two experiments. The method, then: Amoebicidal activity of keanumycin A against D. discoideum was determined using a previously published method. In brief, 3000 D. discoideum cells (AX2) were cultured in 96-well plates (Sarstedt) in 200 μL HL5 medium containing 1% DMSO (Carl Roth) and a specified amount of compound (starting from 0.5 μM; 2-fold serial dilution) in triplicates at 22° C. After 72 h the cell concentration was determined according to the manufacturers instruction using a CASY® Cell Counter+Analyser System (Model TT, Roche Innovatis AG) equipped with a 60 μm capillary and the evaluation cursor set to 7.5-17.5 μm. The viable cell concentration (including standard deviation) was plotted against the logarithmic concentration of the compound and the IC50 value was determined using PRISM (GraphPad, Version 5.03).

The next data set deals with A. castellanii. Put plainly: Amoebicidal activity against Acanthamoeba (resazurin assay). The format is cell-based. The note with it: 96 h, 28 °C, average of two experiments. The method, then: (§1) Amoebicidal activity of keanumycin A against Acanthamoeba was determined by culturing A. castellanii or A. comandoni in 96-well plates (Sarstedt) in 100 μL PYG medium (ATCC Medium 712; https://www.atcc.org) containing 1% DMSO (Carl Roth) and a specified amount of compound (starting from 50 μM; 2-fold serial dilution) in triplicates at 28° C. After 96 h the cell viability was determined using a resazurin assay. Therefore, 20 μL of a 1 mM resazurin sodium (Sigma) solution in water was added per single well before it was allowed to incubate for another 3 h at 28° C. Using a plate reader (Tecan Life Sciences, excitation 560 nm and emission 590 nm) the fluorescence emission was determined. The fluorescence (including standard deviation) was plotted against the logarithmic concentration of the compound and the IC50 value was determined using PRISM (GraphPad, Version 5.03).
On the technique in general: Alamar Blue is a resazurin reagent that responds to reducing activity.

For the next data set, the system named is A. comandoni. Described as above. The format is cell-based. To be noted: 96 h, 28 °C, average of two experiments. The method, then: as §1
The nature of a further data set: Cytotoxicity. The format is cell-based. To be noted: human, HeLa cervix carcinoma cells (DSM ACC 57). The method, then: Keanumycin A was assayed for antiproliferative effects (GI50) using human umbilical vein endothelial cells HUVEC (ATCC CRL-1730) and human chronic myeloid leukemia cells K-562 (DSM ACC 10) and for their cytotoxic effects (CC50) using human cervix carcinoma cells HeLa (DSM ACC 57) as previously described). The test compounds were dissolved in DMSO (10 mg mL-1).

Data set [2] deals with Candida glabrata 2021-359. Put plainly: Broth dilution method (EUCAST). Format: cell-based. The method, then: (§2) The activity assay was performed using the broth dilution method according to the EUCAST DEFINITIVE DOCUMENT E.DEF 9.3.2. B. cinerea and A. solani were incubated according to the Methods for dilution antimicrobial susceptibility tests for bacteria that grow aerobically by the NCCLS. Keanumycin A was dissolved in DMSO.
In general terms: In broth dilution the organism is exposed to a series of concentrations in liquid medium.

Data set [3] deals with Candida parapsilosis ATCC 22019. Nature of the data set: Broth dilution method (EUCAST). The format is cell-based. To be noted: Lodderomyces parapsilosis. The method, then: as §2
Data set [4] concerns Candida tropicalis 2021-360. Nature of the data set: Broth dilution method (EUCAST). Format: cell-based. The method, then:
as §2

Data set [5] relates to Fusarium proliferatum 2021-361. Put plainly: Broth dilution method (EUCAST). Format: cell-based. The method, then:
as §2

Data set [6] relates to Scedosporium apiospermum 2016-079. Put plainly: Broth dilution method (EUCAST). Format: cell-based. The method, then:
as §2

The test system of data set [7] is C. albicans strain SC5314. Nature of the data set: MIC against C. albicans SC5314. The format is cell-based. To be noted: Candida albicans.
Data set [8] deals with human vaginal epithelial cells A431 infected with C. albicans. Put plainly: C. albicans vaginal epithelial infection model, epithelial damage (LDH). The format is cell-based. The note with it: 24 hours of infection, tested 1-16 μg/ml. The method, then:
FIGS. 7A-7B show in 7A) Keanumycin A protected human vaginal epithelial cells in C. albicans infection model. Micrograph depicts % damage to human vaginal epithelial cells A431 (y-axis) in the presence of keanumycin A at varied concentrations (x-axis) as estimated by LDH cytotoxicity assay after 24 hours of infection or treatment. LDH absorbance was normalized to C. albicans infected and uninfected controls. Keanumycin A protected vaginal cells from damage by C. albicans at a narrow concentration range from 4-8 μg/ml (black line). Keanumycin A was toxic to vaginal cells at concentrations above 8 μg/ml (grey line) (N=3). […] Vaginal epithelial cells were lysed after 24-hour infection, and fungal viability was measured by XTT absorbance, normalized to C. albicans infected and uninfected controls (N=2) […]
Overnight culture of C. albicans strain SC5314 grown in YPD at 30° C., shaking at 180 RPM was harvested, washed twice with PBS. […] Epithelial damage was measured 24 hours after infection by collecting and diluting the supernatant 1:10 in PBS and measuring the lactate dehydrogenase (LDH) activity with the Roche Cytotoxicity Detection Kit (LDH) as per manufacturer's instructions. The absorbance (490 nm) values are represented as percentage damage, which is normalized to the low control, where medium only is 0% damage, and high control, where C. albicans infection is 100% damage. […]

The next data set deals with HAC1 mRNA. Put plainly: Splicing of HAC1 mRNA (Ire1-Hac1 UPR pathway). Format: cell-based, Candida albicans. The note with it: compared to positive tunicamycin control. The text has this:
(§3) To see if keanumycin A triggers the same canonical Ire1-Hac1 UPR pathway, the inventors looked at the splicing of HAC1 mRNA, which is regulated by Ire1. […] Since no other specific signaling pathway stood out, the inventors screened homozygous knockout mutants for significant growth differences in the absence and presence of a sublethal concentration of the NRLP. […] PLB5 is an important gene for phospholipid homeostasis and PMT6 codes for a transmembrane protein mannosyltransferase, which is involved in the construction of the outmost mannan cell wall layer in C. albicans.

Data set [9] has as its system C. albicans homozygous knockout mutants. Nature of the data set: Screen of homozygous knockout mutants for growth differences. The note with it: absence vs presence of a sublethal concentration. The format is cell-based, Candida albicans.
Text: as §3

As a reminder, the IC50 is the point on the concentration scale where inhibition reaches its midpoint. Broadly, the CC50 is the concentration at which the toxic effect on the cells reaches its halfway point. Broadly, the MIC is the least concentration at which growth counts as inhibited. For `C/C=C1\NC(=O)[C@H]([C@H](C)O)NC(=O)[C@H](CCN)NC(=O)[C@@H](CCO)NC(=O)CNC(=O)[C@@H](CCN)NC(=O)[C@@H](NC(=O)C[C@H](O)[C@H](O)CCCCCCCCCCCC)COC(=O)[C@H]([C@H](O)CCl)NC(=O)[C@H]([C@H](O)C(=O)O)NC1=O` [Keanumycin A, keanumycin A] (X1-S[dDab]G[d(hSer)][Dab][aThr][Dhb][Asp(3S-OH)][Thr(4-Cl)]; ester 1-C), the IC50 in [1] was 4.4 nM; with A. castellanii, 2000 nM; in the data set with A. comandoni, 3100 nM. The 50% cytotoxic concentration (CC50) in “Cytotoxicity” amounted to 34.9 µg/mL; in the data set “Cytotoxicity” (HeLa, converted value) it was 30000 nM. Also, the MIC in data set [2] (Nakaseomyces glabratus, 2021359) is 0.86 µM and 1 µg/mL; in data set [2] (Nakaseomyces glabratus, 2021359, read-out: Result of the broth dilution method assay (MIC)) it was 1 µg/mL (≈ 0.857 µM); in data set [3] (ATCC22019) it was 0.86 µM and 1 µg/mL; in data set [3] (ATCC22019, read-out: Result of the broth dilution method assay (MIC)), 1 µg/mL (≈ 0.857 µM); in data set [4] (Candida tropicalis, 2021360), 0.86 µM and 1 µg/mL; in data set [4] (Candida tropicalis, 2021360, read-out: Result of the broth dilution method assay (MIC)), 1 µg/mL (≈ 0.857 µM). For the same compound, the minimal inhibitory concentration (MIC) in [5] was > 6.85 µM and > 8 µg/mL; in [5] (Fusarium proliferatum, 2021361, read-out: Result of the broth dilution method assay (MIC)) it was greater than 8 µg/mL; in [6] (Scedosporium apiospermum, 2016079), 6.85 µM and 8 µg/mL; in data set [6] (Scedosporium apiospermum, 2016079, read-out: Result of the broth dilution method assay (MIC)) it was 8 µg/mL (≈ 6.86 µM); in [7], 1.72 µM (≈ 2.01 µg/mL). Further, the “concentration range protecting vaginal cells from damage by C. albicans” value in data set [8] fell in the range of 4 to 8 µg/mL. Also, the “splicing of HAC1 mRNA” value in the data set on HAC1 mRNA is given as “could not observe splicing in HAC1 mRNA”. Also, the “growth differences of knockout mutants” value in [9] was “most prominent growth differences were observed for Δmkc1, Δplb5, and Δpmt6”.
